The structures appear in SMILES notation.

Type in all cases: physicochemical
Data set [1] can be described thus: Slow cooling of the melt experiment. As to conditions: 77° C., SC to RT; sample no. 3. The source says:
j. Slow Cooling of the Melt Experiment
Samples of amorphous material were heated on a hot plate at temperature above the glass transition. The sample was then allowed to slow cool to ambient by turning the heating device off.

Data set [2] can be described thus: Heat stress experiments of amorphous material. The conditions noted are these: sample no. 3. The source says:
i. Heat Stress Experiments
Samples of amorphous material were placed in heating ovens at temperature set below or above the glass transition, or were agitated on a shaker block at elevated temperature for a given duration.

Data set [3] in a line: Aqueous vapor stress experiments. The protocol:
d. Aqueous Vapor Stress Experiments
Samples of starting material were exposed to ˜85% and ˜97% relative humidity at ambient temperature and ˜75% relative humidity at ˜40° C. for a specified duration.

Data set [4] can be described thus: Organic vapor stress experiments. The method, then: e. Organic Vapor Stress Experiments
Samples of starting material were exposed to vapors of a specified organic solvent for a given amount of time by placing open vials with solids tested into 20 mL vials containing solvent. Organic vapor stress experiments were conducted at ambient temperature.

A short description of data set [5]: Moisture sorption analysis (VTI SGA-100, 5 to 95% RH). The conditions noted are these: for hysteresis upon desorption: decreasing relative humidity; for hysteresis upon desorption / weight loss between ~95% and ~5% RH: desorption; for weight loss between ~95% and ~5% RH: ~95% to ~5% RH; for weight gain between ~5% and ~75% RH: ~5% to ~75% RH; for weight gain between ~75% and ~95% RH: ~75% to ~95% RH. The protocol: 9. Moisture Sorption Analysis
Moisture sorption/desorption data were collected on a VTI SGA-100 Vapor Sorption Analyzer. NaCl and PVP were used as calibration standards. Samples were not dried prior to analysis. Sorption and desorption data were collected over a range from 5 to 95% RH at 10% RH increments under a nitrogen purge. The equilibrium criterion used for analysis was less than 0.0100% weight change in 5 minutes with a maximum equilibration time of 3 hours. Data were not corrected for the initial moisture content of the samples.

Data set [6] can be described thus: X-ray powder diffraction (XRPD). The method, then: 3. X-ray Powder Diffraction (XRPD)
Selected XRPD patterns were collected with an Inel XRG-3000 diffractometer. An incident beam of Cu Kα radiation was produced using a fine-focus tube and a parabolically graded multilayer mirror. Prior to the analysis, a silicon standard (NIST SRM 640c) was analyzed to verify the Si 111 peak position. A specimen of the sample was packed into a thin-walled glass capillary, and a beam-stop was used to minimize the background from air. Diffraction patterns were collected in transmission geometry using Windif v. 6.6 software and a curved position-sensitive Equinox detector with a […] of 120°.
Selected XRPD patterns were collected using a Bruker D8 DISCOVER diffractometer and Bruker's General Area-Detector Diffraction System (GADDS, v. 4.1.20). An incident microbeam of Cu Kα radiation was produced using a long, fine-focus tube (40 kV, 40 mA), a parabolically graded multilayer mirror, and a 0.5 mm double-pinhole collimator. Prior to the analysis, a silicon standard (NIST SRM 640c) was analyzed to verify the Si 111 peak position. […]
XRPD patterns for microplate samples were collected using a Bruker D8 DISCOVER diffractometer and Bruker's General Area-Detector Diffraction System (GADDS, v. 4.1.20). […] Prior to the analysis, a silicon standard (NIST SRM 640c) was analyzed to verify the Si 111 peak position. […]

A short description of data set [7]: Correlated thermogravimetric-infrared analysis (TG-IR). The conditions noted are these: sample no. 79. The method, then:
5. Correlated Thermogravimetric—Infrared Analysis (TG-IR)
Thermogravimetric infrared (TG-IR) analysis was performed on a TA Instruments thermogravimetric (TG) analyzer model 2050 interfaced to a Magna-IR 560® Fourier transform infrared (FT-IR) spectrophotometer (Thermo Nicolet) equipped with an Ever-Glo mid/far IR source, a potassium bromide (KBr) beamsplitter, and a mercury cadmium telluride (MCT-A) detector. The FT-IR wavelength verification was performed using polystyrene, and the TG calibration standards were nickel and Alumel™. The sample was placed in a platinum sample pan, and the pan was inserted into the TG furnace. The TG instrument was started first, immediately followed by the FT-IR instrument. The TG instrument was operated under a flow of helium at 90 and 10 cc/min. for the purge and balance, respectively. The furnace was heated under […] at a rate of 20° C./minute to a final temperature of 250° C. IR spectra were collected approximately every 32 seconds for approximately 13 minutes. Each IR spectrum represents 32 co-added scans collected at a spectral resolution of 4 cm^−1. Volatiles were identified from a search of the High Resolution Nicolet Vapor Phase spectral library.

Data set [8] can be described thus: Thermogravimetric analysis (TGA). As to conditions: sample no. 79. The method, then: 4. Thermogravimetric Analysis (TGA)
TG analyses were performed using a TA Instruments 2950 and Q5000 thermogravimetric analyzer. Temperature calibration was performed using nickel and Alumel™. Each sample was placed in an aluminum pan and inserted into the TG furnace. The furnace was heated under a nitrogen purge.
The method code for the thermogram (shown by the list of Figures in the “Brief Description of the Figures” section above) is an abbreviation for the start and end temperature as well as the heating rate; e.g., 25-350-10 means “from 25° C. to 350° C., at 10° C./min”.

The mark [9] stands for this setting: sorption, listed as Sample No. 2.
[10] abbreviates: sorption, listed as amorphous compound 2.

On to `Fc1cc(F)c2c(c1)C[C@@H](n1c(CCNCc3ccccc3)c[nH]c1=S)CO2` [Amorphous, 1-[(3R)-6,8-difluoro-3,4-dihydro-2H-1-benzopyran-3-yl]-1,3-dihydro-5-[2-[(phenylmethyl)amino]ethyl]-2H-Imidazole-2-thione], for which, in data set [1], the “XRPD result after cooling from the melt” value is “Amorphous/Form A mixture”. Besides, the “XRPD result after heat stress” value in data set [2] (36° C., 1 day, heating with agitation) is “Disordered, Form A”; in data set [2] (40° C., 3 hrs), “Amorphous/Form A mixture”; in data set [2] (50° C., 3 hrs), “Amorphous/Form A mixture”; in data set [2] (60° C., 3 hrs), “Disordered, Form A”; in data set [2] (80° C., 3 hrs), “Form A^c”; in data set [2] (80° C., 1 day), “Form A^c”. The “XRPD result after aqueous vapor stress” value in data set [3] (75% RH, 40° C., 1 day, starting material sample no. 3) is “Disordered, Form A”; in data set [3] (85% RH, 3 days, starting material sample no. 14), “No peaks”; in data set [3] (97% RH, RT, 6 days, starting material sample no. 3), “Amorphous/Form A mixture”. The “XRPD result after organic vapor stress” value in data set [4] (Acetone, 1 day, starting material sample no. 2) was “Form A”; in data set [4] (CHCl3, 1 day, starting material sample no. 2), “Form A”; in data set [4] (EtOAc, 1 day, starting material sample no. 2) it was “Form B”; in data set [4] (IPE, 2 days, starting material sample no. 3), “Form A”. The “moisture retained upon desorption” value in data set [5] (desorption between ~85% and ~15% RH) is listed as 3.6-5.8 wt %. The hysteresis upon desorption entry in data set [5] (listed as Sample No. 2) is reported as “large hysteresis”; in data set [5] (listed as amorphous compound 2), “hysteresis over a range of more than 50% RH”. Further, the “weight loss between ~95% and ~5% RH” value in data set [5] (listed as Sample No. 2) was approximately 8.6 wt %; in data set [5] (listed as amorphous compound 2) it was “around 8.6 wt %”. Also, the hygroscopicity result in data set [5] (moisture sorption, amorphous material) is “significant hygroscopicity (a material that exhibits ≧2.0 wt % water uptake over a specified RH range)”. The “weight gain upon equilibration at ~5% RH” value is listed as approximately 0.1 wt % in data set [5] (moisture sorption, listed as Sample No. 2) and “around 0.08 wt %” in data set [5] (moisture sorption, listed as amorphous compound 2). Also, the figures for the “weight gain between ~5% and ~75% RH” value in data set [5] (setting [9]) and in data set [5] (setting [10]) were “approximately 1.2 wt %” and “around 1.2 wt %”, respectively. Moreover, the “total water uptake between ~5% and ~95% RH” value in data set [5] (sorption, ~5% to ~95% RH, listed as Sample No. 2) is on record as approximately 9.9 wt %. Further, the entries for the “weight gain between ~75% and ~95% RH” value in data set [5] (setting [9]) and in data set [5] (setting [10]) were approximately 8.7 wt % and “around 8.7 wt %”, respectively.
Consider `Fc1cc(F)c2c(c1)C[C@@H](n1c(CCNCc3ccccc3)c[nH]c1=S)CO2` [Form B, 1-[(3R)-6,8-difluoro-3,4-dihydro-2H-1-benzopyran-3-yl]-1,3-dihydro-5-[2-[(phenylmethyl)amino]ethyl]-2H-imidazole-2-thione], for which the XRPD result in data set [6] (sample no. 48 (crystallized from tetrahydrofuran/ethyl acetate)) and in data set [6] (sample no. 79 (organic vapor stress of amorphous material in ethyl acetate)) was “Crystalline consistent with Form B of compound 2” in each case. In addition, the “TG-IR (IR) identification of volatile” value in data set [7] was “(IR): Consistent with loss of ethyl acetate”. Further, the “TGA sharp weight loss (onset)” value in data set [8] is “Sharp weight loss at ~254 °C (onset)”. The TGA weight loss in data set [8] (between ~138° C. and ~190° C.) was ~4.7 wt % loss between ~138 °C and ~190 °C.
